What was measured:
[1] = tested on: depression-like behavior of mice; experiment: tail suspension test; assay type: in vivo; conditions: amlodipine experiment: single compound vs PBS, ostruthin 5 mg/kg or amlodipine 10 mg/kg, n = 9 and 13
From the text: (§1) Male ICR mice (n = 317 in total) aged 5 weeks and weighing 32 ± 2 g were purchased from Shimizu Laboratory Supplies (Kyoto, Japan). For the social defeat stress test, we used 28 C57BL/6J mice (5 weeks old, Shimizu Laboratory Supplies) and 30 ICR mice (7–8 weeks old, Charles River Labs Japan, Yokohama, Kanagawa, Japan). Mice were maintained for at least 1 week prior to experiments. Animals were kept in groups in plastic cages. They had free access to food and water, and were kept in a 12-h light/dark cycle (08:00–20:00). Experiments were carried out between 10:00 and 18:00 in a quiet and air-conditioned experimental room, in which mice were habituated for at least 30 min before each experiment. Animal experiments were performed in accordance with the guidelines of the Physiological Society of Japan and were approved by the Committees on Animal Experiments at Kansai Medical University and the Kurashiki University of Science and the Arts. Ostruthin was initially dissolved in DMSO at higher concentration (100 mM) and then diluted in phosphate-buffered saline (PBS). The diluted solution was mixed vigorously for more than 10 min before the experiments, and an equal volume of DMSO was added to PBS as a control. PBS and ostruthin were administered intraperitoneally 30 min before mice behavioral tests (0.01 ml/g body weight). Each animal was used only once, except for the wheel running test, which was carried out immediately after elevated plus maze.
The tail suspension test was performed in accordance with a method reported previously. The mouse was hung on a hook using adhesive tape placed 2 cm from the extremity of its tail 50 cm above the table. The amount of time spent immobile was recorded for 5 min.

[2] = tested on: mice anxiety-like behavior; experiment: elevated plus maze; assay type: in vivo; conditions: amlodipine experiment: single compound vs PBS, ostruthin 5 mg/kg or amlodipine 10 mg/kg, n = 6
From the text: as §1
The elevated plus maze apparatus consisted of four arms set in a cross pattern from a neutral central square (6 × 6 cm). Two opposite arms were delimited by vertical walls (closed arms, 30 × 15 × 6 cm), whereas the other two arms had unprotected edges (open arms, 30 × 6 cm). The maze was elevated 40 cm above the floor. At the beginning of each 5 min test session, a mouse was placed in the central neutral area, facing one of the open arms. The total number of the entries to open arms and time spent in the open arms were measured. After removal of the animal, the apparatus was cleaned and wiped.

TREK-2 channel [3] = molecular target: T1, TREK-2 channel (Homo sapiens, UniProt P57789); experiment: whole-cell patch-clamp of TREK-2 currents transiently expressed in 293T cells; assay type: cell-based; conditions: bupivacaine 3 mM, after ostruthin
T1 construct: expressed in transfected cells; host or cells: 293T (transient, calcium-phosphate transfection)
T1 sequence (P57789 1-538): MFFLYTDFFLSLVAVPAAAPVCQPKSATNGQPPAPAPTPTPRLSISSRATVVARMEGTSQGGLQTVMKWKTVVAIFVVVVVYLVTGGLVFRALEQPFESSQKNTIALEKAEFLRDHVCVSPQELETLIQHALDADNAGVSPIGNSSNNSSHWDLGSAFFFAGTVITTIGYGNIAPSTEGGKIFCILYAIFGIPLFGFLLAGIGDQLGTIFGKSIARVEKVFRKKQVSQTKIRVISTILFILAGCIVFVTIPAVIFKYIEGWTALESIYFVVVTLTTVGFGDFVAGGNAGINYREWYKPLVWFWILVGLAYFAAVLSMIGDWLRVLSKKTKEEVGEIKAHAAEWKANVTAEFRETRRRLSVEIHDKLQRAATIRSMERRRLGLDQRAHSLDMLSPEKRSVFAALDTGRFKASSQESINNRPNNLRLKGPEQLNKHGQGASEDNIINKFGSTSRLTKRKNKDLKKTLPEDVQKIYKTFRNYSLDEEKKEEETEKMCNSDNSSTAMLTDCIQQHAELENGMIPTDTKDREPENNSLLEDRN
From the text: (§2) For recordings of K^+ channel currents, we prepared stable cell lines for TREK-1, TWIK-related acid-sensitive K^+ channel (TASK-1), strongly inwardly rectifying K^+ channel (Kir2.1), and human ether-a-go-go-related gene (HERG-1) channels and transiently expressed other channels in 293T cells using a calcium-phosphate transfection method. For the establishment of the stable lines, we used lentiviral vectors, and the preparation methods for the lentiviral vectors were described in our previous report. TR-1 cells, which stably expressed TREK-1 channel and were grown on a small cover glass (3 × 18 mm), were placed in a recording chamber with an internal volume of 200 μl. Whole-cell currents were recorded in Tyrode solution using an Axopatch 200B amplifier (Axon Instruments, Foster City, CA) at 25°C. […] Perfusion (100 μl/min) was continued to maintain the water level throughout recordings. pH and osmotic pressure of solutions were measured with a pH meter (Horiba, Kyoto, Japan) and a freezing point osmometer (Knauer, Berlin, Germany), respectively.
TREK-1 channels are known to be activated by low pH and mechanical stretch. […] To test these possibilities, we measured the pH of Tyrode solution before and after addition of 100 μM ostruthin, and observed no significant change (from 7.31 ± 0.17 to 7.33 ± 0.22, p = 0.645, paired t-test, n = 6). […]

TREK-2 channel [4] = molecular target: T1, TREK-2 channel; parameters: method as in PMID 10880510; conditions: 100 μM; cited from earlier work
TREK-1 channel = molecular target: T2, TREK-1 channel (Homo sapiens, UniProt O95069); experiment: whole-cell patch-clamp of TREK-1 currents in TR-1 cells (293T stably expressing TREK-1); assay type: cell-based; conditions: bupivacaine 3 mM, after 100 μM ostruthin
T2 construct: expressed in transfected cells
T2 sequence (O95069 1-426): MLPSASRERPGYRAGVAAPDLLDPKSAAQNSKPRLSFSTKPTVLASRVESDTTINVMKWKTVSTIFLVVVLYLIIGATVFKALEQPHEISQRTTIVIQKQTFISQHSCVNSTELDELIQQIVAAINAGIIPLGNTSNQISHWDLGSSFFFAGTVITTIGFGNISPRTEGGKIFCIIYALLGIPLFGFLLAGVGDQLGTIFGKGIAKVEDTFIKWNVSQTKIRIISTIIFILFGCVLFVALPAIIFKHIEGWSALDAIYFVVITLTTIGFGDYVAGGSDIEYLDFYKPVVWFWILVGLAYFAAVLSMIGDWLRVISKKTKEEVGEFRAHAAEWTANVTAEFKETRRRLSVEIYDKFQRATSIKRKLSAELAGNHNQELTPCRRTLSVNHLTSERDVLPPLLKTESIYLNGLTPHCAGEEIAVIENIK
From the text: as §2
We previously prepared a lentiviral vector that expressed the TREK-1 channel and using this vector we established a cell line, TR-1, which stably expressed the channel. […] Immediately after whole-cell access, small outward currents were recorded in response to depolarizing step pulses (Fig 1A, 0 min). […]

Row | SMILES | time spent immobile [1] | number of entries to the open arm [2] | block of TREK-2 current (TREK-2 channel [3]) | sensitivity of TREK-2 channel to bupivacaine (TREK-2 channel [4]) | inhibition of the ostruthin-increased TREK-1 current (TREK-1 channel)
1 | CCOC(=O)C1=C(COCCN)NC(C)=C(C(=O)OC)C1c1ccccc1Cl (centres unmarked) [amlodipine, reference compound] | non-significantly decreased | non-significantly decreased |  |  | 
2 | CCCCN1CCCCC1C(=O)Nc1c(C)cccc1C (centres unmarked) [bupivacaine, reference compound] |  |  | almost blocked the current | insensitive | inhibited nearly completely

Reference: paper PMC6093650, “Antidepressive and anxiolytic effects of ostruthin, a TREK-1 channel activator” (PLoS ONE, 2018)
